Assay results from patent US7744909B2, “Dispersions for the formulation of slightly or poorly soluble agents” (Abbott GmbH & Co., KG, priority 2000, dated 2010).
≈ marks a conversion by molar mass, not a printed value.

What was measured:
[1] = Additive solubility in oil and water phase versus quantity dissolved in the emulsion; format: physicochemical
Description: Preferably, the quantity of active ingredient dissolved is greater than the additive quantity by a factor of 2, more preferably 5, still more preferably 10 or even greater. The “additive quantity” is determined by dissolving the maximum possible quantity of active ingredient in the separate oily and aqueous phases (dissolving conditions being otherwise identical) corresponding to the constituents in the dispersion (saturation concentration), no further additional organic solvents being used. The dispersion according to the invention contains, in addition to the additive quantity, a superadditive quantity of dissolved active ingredient.
40 g emulsion from Example 1 consist 20% of oil (8 g) and ca. 80% of water (32 g). Thus on the basis of these solubilities, 8×0.0001 mg/ml plus 32×0.01 mg/ml, i.e. in total 0.3208 mg Amphotericin can be dissolved in 40 g emulsion components oil and water (i.e. approx. 0.008 mg/ml emulsion). In the present emulsion according to the invention 0.2 mg/ml emulsion could be incorporated (Example 1) without microscopic crystals of undissolved drug being detectable (Example 12).
Dissolved active ingredient is rapidly available. […] The solubility in water and oil phase amounts to, for example, 0.008 mg/ml in the case of Amphotericin B, the emulsion according to the invention dissolves without detectable crystals e.g. 0.2 mg/ml (Example 1). If 5 mg/ml dispersion is incorporated, the solubility is exceeded (supersaturated system).
(§1) The dispersions contains the active ingredient dissolved in an amount, which is greater than that amount which is the result of the mathematical addition of its maximal solubility in each of the water phase and the oil phase of the emulsion, which “addition amount” is determined under standard conditions (20° C., standard pressure) by dissolving the maximal amount of active ingredient in the separate oil and aqueous phases (maintaining the other dissolution conditions identical) corresponding to the proportions in the dispersion (saturation concentrations).

[2] = oral administration; cited from earlier work
[3] = Solubility of Amphotericin in standard oils (soya oil, Miglyol 812); format: physicochemical; conditions: oil or lipid
Description: The solubility of Amphotericin in soya oil (Long-chain Triglycerides—LCT) and in Miglyol 812 (Medium-chain Triglycerides—MCT), the standard oils for most commercially available emulsions for parenteral infusion is less than 0.0001 mg/ml.
as §1

[4] = Solubility of Amphotericin B in water; format: physicochemical; conditions: for solubility: water
Description: Thus the solubility of Amphotericin B in water is less than 0.001% (<0.01 mg/ml) at pH 6-7, i.e. the pH value of the emulsion. It is true that the solubility of Amphotericin is higher with pH 2 and pH 11 (0.1 mg/ml), however these solutions cannot be administered intravenously.
as §1

quantity that can be dissolved in 40 g emulsion components oil and water ([1]; 8 g oil plus 32 g water, calculated from the separate solubilities): 0.3208 mg
solubility ([1]; 20 °C, oil or lipid, per ml emulsion, calculated from the separate solubilities): ~8 µg/mL (≈ 8.66 µM)
quantity dissolved in the emulsion without detectable crystals ([1]; emulsion according to the invention (Example 1), Lipofundin N 20%): 0.2 mg/mL
solubility in water and oil phase (additive quantity) ([1]; per ml emulsion, calculated from the separate solubilities): 8 µg/mL (≈ 8.66 µM)
solubility ([3]; Miglyol 812 (medium-chain triglycerides, MCT), read-out: solubility in Miglyol 812 (Medium-chain Triglycerides, MCT)): < 0.1 µg/mL
solubility ([3]; soya oil (long-chain triglycerides, LCT), read-out: solubility in soya oil (Long-chain Triglycerides, LCT)): < 0.1 µg/mL
solubility in water ([4]; pH 6-7, the pH value of the emulsion): less than 0.001%
solubility ([4]; pH 2, aqueous buffer, read-out: solubility): 100 µg/mL (≈ 108 µM)
solubility ([4]; pH 11, aqueous buffer, read-out: solubility): 100 µg/mL (≈ 108 µM)
solubility ([4]; pH 6-7, the pH value of the emulsion, read-out: solubility in water): < 10 µg/mL
SMILES: C[C@@H]1[C@H](O)[C@@H](C)/C=C/C=C/C=C/C=C/C=C/C=C/C=C/[C@H](O[C@@H]2O[C@H](C)[C@@H](O)[C@H](N)[C@@H]2O)C[C@@H]2O[C@](O)(C[C@@H](O)C[C@@H](O)[C@H](O)CC[C@@H](O)C[C@@H](O)CC(=O)O[C@H]1C)C[C@H](O)[C@H]2C(=O)O [Amphotericin B]
bioavailability [2]: almost zero
